How the values were obtained:
Settings in all cases: 48 h
[1] = tested on: P12-Ichikawa; assay: cell viability relative to DMSO control; higher = less cytotoxic
In short: (§1)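 Viability is expressed as a percentage of DMSO wells within each plate, and cell-free wells serve as background. Seeding densities in the 1536-well plates (5 μl) were 500 cells/well for NOMO1 or SEM leukemia cells and 1000 cells/well for P12-Ichikawa. Each line was adapted for at least four passages in each medium. Library compounds in DMSO were pin-dosed at 47 μM to 0.79 nM (11 points, threefold), and CellTiter-Glo One luminescence was read after 48 h at 37°C.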

[2] = tested on: SEM cells; assay: as above
In short: as §1

[3] = tested on: NOMO1; assay: AUC of viability dose-response curve (% viability x log10 dose units); higher = less sensitive
In short: (§2)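 Medium-adapted leukemia cells in 1536-well plates, at 500 or 1000 cells/well, were incubated for 48 h at 37°C with library compounds in DMSO at 11 threefold doses from 47 μM to 0.79 nM. CellTiter-Glo One luminescence normalised per plate to DMSO and cell-free wells was fitted with a four-parameter log-logistic model over log10 doses. Area under the curve was integrated from this fit by trapezoidal rule, with curves beyond full viability scaled and failed quality-control curves removed.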

[4] = tested on: P12-Ichikawa; assay: as above
In short: as §2

[5] = tested on: SEM cells; assay: as above
In short: as §2

[6] = tested on: NOMO1; assay: cell viability relative to DMSO control; higher = less cytotoxic
In short: as §1

COc1ccc(/C=C\c2cc(OC)c(OC)c(OC)c2)cc1NC(=O)[C@H](N)CO
cell viability [%], RPMI 5 mM glucose + 10% FBS
Settings | [1] | [2]
0.000781 µM | 121 | 104
0.00234 µM | 144 | 118
0.00702 µM | 125 | 115
0.0211 µM | 50.9 | 58.1
0.0632 µM | 24.6 | 15
0.19 µM | 13.8 | 11.1
0.569 µM | 9.28 | 14.7
1.71 µM | 7.31 | 7.29
5.12 µM | 8.08 | 6.77
15.4 µM | 4.52 | 3.55
46.1 µM | 4.09 | 3.19

AUC of viability dose-response curve
Settings | [3] | [4] | [5]
HPLM + 10% dialyzed FBS | 209 | 179 | 190
RPMI 5 mM glucose + 10% FBS | 188 | 157 | 167
RPMI 5 mM glucose + 10% dialyzed FBS | 206 | 202 | 186

O=C(CN1C(=O)C2(CCCC2)NC[C@H]1c1cc(F)cc(F)c1)Nc1ccc2c(c1)C[C@@]1(C2)C(=O)Nc2ncccc21
cell viability [%], [2]
Settings | HPLM + 10% dialyzed FBS | RPMI 5 mM glucose + 10% FBS
0.000781 µM | 109 | 123
0.00234 µM | 104 | 104
0.00702 µM | 119 | 126
0.0211 µM | 139 | 142
0.0632 µM | 125 | 131
0.19 µM | 131 | 136
0.569 µM | 132 | 145
1.71 µM | 140 | 131
5.12 µM | 142 | 135
15.4 µM | 114 | 129
46.1 µM | 104 | 129

AUC of viability dose-response curve
Settings | [3] | [4] | [5]
HPLM + 10% dialyzed FBS | 445 | 472 | 461
RPMI 5 mM glucose + 10% FBS | 459 | 466 | 463
RPMI 5 mM glucose + 10% dialyzed FBS | 467 | 471 | 446

COc1ccccc1[C@H](c1cccc2ccccc12)[C@@](C)(C#N)C(=O)N1CCC(c2cccc(C(F)(F)F)c2)CC1
cell viability [%]
Settings | [1] | [2] | [6]
HPLM + 10% dialyzed FBS, 0.000781 µM | 99.7 | 87.3 | 96.4
HPLM + 10% dialyzed FBS, 0.00234 µM | 109 | 103 | 109
HPLM + 10% dialyzed FBS, 0.00702 µM | 104 | 96.6 | 101
HPLM + 10% dialyzed FBS, 0.0211 µM | 115 | 97.4 | 104
HPLM + 10% dialyzed FBS, 0.0632 µM | 104 | 107 | 115
HPLM + 10% dialyzed FBS, 0.19 µM | 113 | 103 | 102
HPLM + 10% dialyzed FBS, 0.569 µM | 107 | 108 | 102
HPLM + 10% dialyzed FBS, 1.71 µM | 107 | 99.2 | 93.7
HPLM + 10% dialyzed FBS, 5.12 µM | 92.7 | 89.3 | 88.6
HPLM + 10% dialyzed FBS, 15.4 µM | 84.5 | 54.4 | 64.3
HPLM + 10% dialyzed FBS, 46.1 µM | 68.8 | 39.7 | 39.9
RPMI 5 mM glucose + 10% FBS, 0.000781 µM | 108 | 92.3 | 102
RPMI 5 mM glucose + 10% FBS, 0.00234 µM | 115 | 104 | 96
RPMI 5 mM glucose + 10% FBS, 0.00702 µM | 104 | 102 | 101
RPMI 5 mM glucose + 10% FBS, 0.0211 µM | 107 | 107 | 106
RPMI 5 mM glucose + 10% FBS, 0.0632 µM | 119 | 102 | 99.6
RPMI 5 mM glucose + 10% FBS, 0.19 µM | 99.8 | 114 | 103
RPMI 5 mM glucose + 10% FBS, 0.569 µM | 107 | 105 | 99.7
RPMI 5 mM glucose + 10% FBS, 1.71 µM | 92.4 | 119 | 107
RPMI 5 mM glucose + 10% FBS, 5.12 µM | 80.3 | 111 | 97.6
RPMI 5 mM glucose + 10% FBS, 15.4 µM | 72.7 | 84.7 | 85.2
RPMI 5 mM glucose + 10% FBS, 46.1 µM | 60.7 | 56 | 60.3
RPMI 5 mM glucose + 10% dialyzed FBS, 0.000781 µM | 108 | 83.3 | 100
RPMI 5 mM glucose + 10% dialyzed FBS, 0.00234 µM | 108 | 91.5 | 98.9
RPMI 5 mM glucose + 10% dialyzed FBS, 0.00702 µM | 117 | 100 | 98.6
RPMI 5 mM glucose + 10% dialyzed FBS, 0.0211 µM | 112 | 99.4 | 99.3
RPMI 5 mM glucose + 10% dialyzed FBS, 0.0632 µM | 122 | 90.8 | 104
RPMI 5 mM glucose + 10% dialyzed FBS, 0.19 µM | 111 | 104 | 99.9
RPMI 5 mM glucose + 10% dialyzed FBS, 0.569 µM | 108 | 102 | 86.4
RPMI 5 mM glucose + 10% dialyzed FBS, 1.71 µM | 112 | 87.8 | 86.5
RPMI 5 mM glucose + 10% dialyzed FBS, 5.12 µM | 88.7 | 93.9 | 83.1
RPMI 5 mM glucose + 10% dialyzed FBS, 15.4 µM | 71.2 | 76.6 | 67.3
RPMI 5 mM glucose + 10% dialyzed FBS, 46.1 µM | 47.9 | 54.9 | 53.1

AUC of viability dose-response curve
Settings | [3] | [4] | [5]
HPLM + 10% dialyzed FBS | 431 | 450 | 435
RPMI 5 mM glucose + 10% FBS | 458 | 425 | 456
RPMI 5 mM glucose + 10% dialyzed FBS | 427 | 432 | 434

c1ccc(CNc2nc(NCc3ccccc3)c3ccccc3n2)cc1
cell viability [%], HPLM + 10% dialyzed FBS
Settings | [2] | [6]
0.000781 µM | 104 | 92.7
0.00234 µM | 116 | 114
0.00702 µM | 117 | 144
0.0211 µM | 125 | 121
0.0632 µM | 130 | 138
0.19 µM | 132 | 134
0.569 µM | 136 | 148
1.71 µM | 127 | 158
5.12 µM | 136 | 132
15.4 µM | 133 | 118
46.1 µM | 32.5 | 5.97

AUC of viability dose-response curve
Settings | [3] | [4] | [5]
HPLM + 10% dialyzed FBS | 450 | 473 | 440
RPMI 5 mM glucose + 10% FBS | 466 | 465 | 462
RPMI 5 mM glucose + 10% dialyzed FBS | 463 | 465 | 470

C[C@@H]1[C@H]\2[C@H](O)[C@H]3[C@H](N(C)C)\C(=C(C(N)=O)/C(=O)[C@@]3(O)\C(=C2C(=O)C4=C(O)C=CC=C14)O)O
cell viability [%]
Settings | HPLM + 10% dialyzed FBS | RPMI 5 mM glucose + 10% FBS | RPMI 5 mM glucose + 10% dialyzed FBS
[1], 0.000781 µM | 114 | – | –
[1], 0.00234 µM | 122 | – | –
[1], 0.00702 µM | 125 | – | –
[1], 0.0211 µM | 127 | – | –
[1], 0.0632 µM | 129 | – | –
[1], 0.19 µM | 126 | – | –
[1], 0.569 µM | 131 | – | –
[1], 1.71 µM | 129 | – | –
[1], 5.12 µM | 127 | – | –
[1], 15.4 µM | 126 | – | –
[1], 46.1 µM | 113 | – | –
[2], 0.000781 µM | – | 115 | 123
[2], 0.00234 µM | – | 131 | 122
[2], 0.00702 µM | – | 110 | 123
[2], 0.0211 µM | – | 127 | 122
[2], 0.0632 µM | – | 109 | 108
[2], 0.19 µM | – | 145 | 133
[2], 0.569 µM | – | 122 | 149
[2], 1.71 µM | – | 121 | 144
[2], 5.12 µM | – | 126 | 113
[2], 15.4 µM | – | 102 | 89.9
[2], 46.1 µM | – | 123 | 93.4

AUC of viability dose-response curve
Settings | [3] | [4] | [5]
HPLM + 10% dialyzed FBS | 470 | 473 | 468
RPMI 5 mM glucose + 10% FBS | 465 | 462 | 473
RPMI 5 mM glucose + 10% dialyzed FBS | 472 | 462 | 440

CC(=O)OCC(=O)[C@@]1(O)CC[C@H]2[C@@H]3CCC/4=C/C(=O)CC[C@]4(C)[C@H]3C(=O)C[C@]12C
[2], HPLM + 10% dialyzed FBS
Settings | cell viability [%]
0.000781 µM | 106
0.00234 µM | 109
0.00702 µM | 112
0.0211 µM | 101
0.0632 µM | 107
0.19 µM | 117
0.569 µM | 84.5
1.71 µM | 51.8
5.12 µM | 112
15.4 µM | 111
46.1 µM | 118

AUC of viability dose-response curve
Settings | [3] | [4] | [5]
HPLM + 10% dialyzed FBS | 464 | 460 | 466
RPMI 5 mM glucose + 10% FBS | 476 | 470 | 466
RPMI 5 mM glucose + 10% dialyzed FBS | 459 | 430 | 445

NC(=O)N/N=C/c1ccc([N+](=O)[O-])o1
cell viability [%], [2]
Settings | HPLM + 10% dialyzed FBS | RPMI 5 mM glucose + 10% FBS
0.000781 µM | 104 | 121
0.00234 µM | 120 | 133
0.00702 µM | 101 | 123
0.0211 µM | 124 | 129
0.0632 µM | 125 | 137
0.19 µM | 122 | 142
0.569 µM | 109 | 116
1.71 µM | 122 | 140
5.12 µM | 112 | 139
15.4 µM | 126 | 161
46.1 µM | 109 | 120

AUC of viability dose-response curve
Settings | [3] | [4] | [5]
HPLM + 10% dialyzed FBS | 455 | 470 | 472
RPMI 5 mM glucose + 10% FBS | 441 | 435 | 453
RPMI 5 mM glucose + 10% dialyzed FBS | 434 | 470 | 467
